Among the data in ChEMBL document CHEMBL3085659, “Synthesis, antiproliferative and apoptosis-inducing activity of thiazolo[5,4-d]pyrimidines” (Eur J Med Chem, 2013) are inhibition of growth values, retold here.

What all share (type): functional
The test system of one assay is HL-60. Briefly: Antiproliferative activity against human HL60 cells assessed as growth inhibition at 10 uM after 48 hrs by SRB assay. The settings on record: HL-60, 48 h, read-out: GI. (In general: Sulforhodamine B stains cellular protein and so reports cell mass.)
The next assay has as its system A549. The experiment in a line: Antiproliferative activity against human A549 cells assessed as growth inhibition at 10 uM after 48 hrs by SRB assay. The settings on record: A549, 48 h, read-out: GI.
The subject of another assay is PC-3. Briefly: Antiproliferative activity against human PC3 cells assessed as growth inhibition at 10 uM after 48 hrs by SRB assay. The settings on record: PC-3, 48 h, read-out: GI.
The subject of another assay is T98G. The experiment in a line: Antiproliferative activity against human T98G cells assessed as growth inhibition at 10 uM after 48 hrs by SRB assay. The settings on record: read-out: GI.
Assay [1] in a line: Antiproliferative activity against human MIAPaCa2 cells assessed as growth inhibition at 10 uM after 48 hrs by SRB assay. Particulars: MIA PaCa-2, 48 h, read-out: GI.
A further assay relates to A-431. The experiment in a line: Antiproliferative activity against human A431 cells assessed as growth inhibition at 10 uM after 48 hrs by SRB assay. The settings on record: A-431, 48 h, read-out: GI.
A further assay has as its system T47D. The experiment in a line: Antiproliferative activity against human T47D cells assessed as growth inhibition at 10 uM after 48 hrs by SRB assay. Particulars: read-out: GI.
The nature of assay [2]: Antiproliferative activity against human NCI-H322 cells assessed as growth inhibition at 10 uM after 48 hrs by SRB assay. Particulars: NCI-H322, 48 h, read-out: GI.

For `Clc1ccc(Nc2nc3c(N4CCOCC4)ncnc3s2)cc1`, the inhibition of growth at 10 µM stood at 33% in the assay on HL-60; 24% in the assay with A549; 39% with PC-3; 22% in the assay with T98G; 21% in assay [1]; 0% with A-431. Besides, the inhibition of growth at 10 µM in the assay on T47D came to 40%; in assay [2], 42%.

Take `CN1CCN(c2ncnc3sc(Nc4ccccc4)nc23)CC1`: the inhibition of growth at 10 µM in the assay on HL-60 stood at 12%; in the assay with A549, 19%; in the assay with PC-3 it was 29%; with T98G, 36%; in assay [1], 10%; in the assay on A-431 it was 19%. For the same compound, the inhibition of growth at 10 µM was found to be 13% in the assay with T47D and 39% in assay [2].

For the compound `Clc1ccc(Nc2nc3c(N4CCCC4)ncnc3s2)cc1`, the inhibition of growth at 10 µM worked out at 41% in the assay on HL-60; 26% in the assay on A549; 31% in the assay on PC-3; 6% with T98G; 37% in assay [1]; 17% in the assay with A-431. Further, the figures for the inhibition of growth at 10 µM (in the assay on T47D; in assay [2]) were 38% and 27%, respectively.

With `CCN(CC)c1ncnc2sc(Nc3ccccc3)nc12`, the inhibition of growth at 10 µM in the assay with HL-60 worked out at 31%; in the assay on A549, 48%; with PC-3 it was 19%; with T98G, 49%; in assay [1], 9%; in the assay on A-431 it was 12%. Also, the figures for the inhibition of growth at 10 µM (in the assay with T47D; in assay [2]) were 27% and 39%, respectively.

Take `Clc1ccc(Nc2nc3c(Cl)ncnc3s2)cc1`: the inhibition of growth at 10 µM is 18% in the assay with HL-60; 46% in the assay with A549; 18% with PC-3; 0% in the assay with T98G; 10% in assay [1]; 0% with A-431. The inhibition of growth at 10 µM with T47D worked out at 9%; in assay [2] it was 47%.

`c1ccc(Nc2nc3c(N4CCNCC4)ncnc3s2)cc1`: the inhibition of growth at 10 µM in the assay with HL-60 turned out to be 39%; with A549, 19%; with PC-3, 35%; in the assay with T98G it was 12%; in assay [1], 30%; with A-431 it was 18%. In addition, the results for the inhibition of growth at 10 µM (with T47D; in assay [2]) were 21% and 35%, respectively.

For the compound `CN1CCN(c2ncnc3sc(Nc4ccc(Cl)cc4)nc23)CC1`, the inhibition of growth at 10 µM worked out at 20% with HL-60; 18% in the assay with A549; 18% with PC-3; 20% with T98G; 5% in assay [1]; 21% with A-431. For the same compound, the inhibition of growth at 10 µM was determined as 21% in the assay with T47D and 10% in assay [2].

As for `CCN1CCN(c2ncnc3sc(Nc4ccccc4)nc23)CC1`, the inhibition of growth at 10 µM in the assay on HL-60 came out at 24%; in the assay with A549, 25%; in the assay with PC-3 it was 19%; in the assay with T98G, 19%; in assay [1] it was 9%; in the assay on A-431, 0%. The inhibition of growth at 10 µM in the assay with T47D is 29%; in assay [2], 27%.

Turning to `Clc1ncnc2sc(Nc3ccccc3)nc12`, the inhibition of growth at 10 µM with HL-60 stood at 21%; with A549 it was 3%; in the assay with PC-3 it was 20%; in the assay with T98G, 1%; in assay [1] it was 4%; in the assay on A-431, 1%. Besides, the inhibition of growth at 10 µM in the assay with T47D was 22%; in assay [2] it was 0%.

For the compound `c1ccc(Nc2nc3c(N4CCC(N5CCCCC5)CC4)ncnc3s2)cc1`, the inhibition of growth at 10 µM stood at 39% with HL-60; 19% in the assay with A549; 34% in the assay with PC-3; 13% in the assay with T98G; 23% in assay [1]; 10% in the assay on A-431. The inhibition of growth at 10 µM in the assay with T47D was determined as 21%; in assay [2], 30%.

As to `CN(C)c1ncnc2sc(Nc3ccc(Cl)cc3)nc12`, the inhibition of growth at 10 µM with HL-60 worked out at 39%; in the assay with A549, 23%; in the assay with PC-3, 28%; with T98G, 23%; in assay [1], 28%; with A-431, 0%. Moreover, the inhibition of growth at 10 µM in the assay on T47D was found to be 21%; in assay [2], 6%.

Turning to `CN(C)c1ncnc2sc(Nc3ccccc3)nc12`, the inhibition of growth at 10 µM was 28% in the assay on HL-60; 28% in the assay on A549; 36% in the assay on PC-3; 45% with T98G; 9% in assay [1]; 10% with A-431. Further, the inhibition of growth at 10 µM came out at 31% in the assay on T47D and 18% in assay [2].

On to `Clc1ccc(Nc2nc3c(N4CCCCC4)ncnc3s2)cc1`, for which the inhibition of growth at 10 µM in the assay with HL-60 was 21%; in the assay on A549 it was 57%; with PC-3 it was 2%; with T98G, 45%; in assay [1] it was 1%; with A-431 it was 22%. The inhibition of growth at 10 µM is 8% in the assay with T47D and 63% in assay [2].

For the compound `O=C(Nc1nc2c(Cl)ncnc2s1)c1ccccc1`, the inhibition of growth at 10 µM was found to be 21% in the assay on HL-60; 29% in the assay on A549; 21% with PC-3; 23% in the assay on T98G; 15% in assay [1]; 0% in the assay with A-431. The inhibition of growth at 10 µM in the assay with T47D came out at 32%; in assay [2], 37%.

Regarding `COc1ccc(Nc2nc3c(Cl)ncnc3s2)cc1`, the inhibition of growth at 10 µM with HL-60 came out at 31%; with A549, 0%; with PC-3 it was 26%; in the assay on T98G it was 4%; in assay [1], 0%; in the assay on A-431 it was 9%. The inhibition of growth at 10 µM was found to be 19% in the assay on T47D and 25% in assay [2].

In the case of `c1ccc(Nc2nc3c(N4CCCCC4)ncnc3s2)cc1`, the inhibition of growth at 10 µM with HL-60 came out at 22%; in the assay on A549 it was 54%; with PC-3, 2%; in the assay on T98G, 42%; in assay [1], 17%; in the assay on A-431 it was 22%. For the same compound, the inhibition of growth at 10 µM in the assay on T47D was found to be 31%; in assay [2], 41%.
